How the values were obtained:
[1] = set-up: method as in doi:10.1021/acs.organomet.9b00813; conditions: UV-Vis measurements; cited from earlier work
MCF-7 = assay: MTT antiproliferative assay; assay type: cell-based, human; conditions: 72 h, mean ± SD
Experimental: (§1) All of the cell lines were cultivated in DMEM medium (high glucose 4.5 g L^–1, PAA, Pasching, Austria) supplemented with gentamycin (50 μg mL^–1, Serva, Heidelberg, Germany) and 10% heat-inactivated fetal bovine serum (PAA). The medium for MRC5pd30 cells was further supplemented by 1% nonessential amino acids (Sigma-Aldrich, Prague, Czech Republic). All cells were cultured as adherent monolayers in a humidified incubator at 37 °C in a 5% CO2 atmosphere and subcultured twice a week with an appropriate plating density.
(§2) In vitro antiproliferative activity of Ru complexes was determined by the MTT or, alternatively, SRB assay as already described,[84] after 72 h of incubation of cells with various concentrations of the Ru complex. The reported IC50 values are an average of three independent experiments, each consisting of three replicates per concentration.

HeLa = assay: MTT antiproliferative assay; assay type: cell-based, human; conditions: 72 h, mean ± SD
Experimental: as §1, §2

HCT116 [2] = assay: MTT antiproliferative assay; assay type: cell-based, human; conditions: 72 h, mean ± SD
Experimental: as §1, §2

518A2 = assay: MTT antiproliferative assay; assay type: cell-based, human; conditions: 72 h, mean ± SD
Experimental: as §1, §2

[3] = Octanol/water partition coefficient, shake-flask, UV-vis; assay type: physicochemical
Experimental: Partition coefficients (Pow); IUPAC: […] A stock solution of the selected ruthenium compound (ca. 2 mg) was prepared by first adding MeOH (50 μL, to help solubilization), followed by octanol-saturated water (2.5 mL). The solution was diluted with octanol-saturated water (ca. 1:3 v/v ratio, cRu ≈ 10^-4 M, so that 1.5 ≤ A ≤ 2.0 at λmax), and its UV-vis spectrum was recorded (Aaq^0). An aliquot of the solution (Vaq = 1.2 mL) was transferred into a test tube, and water-saturated octanol (Vorg = Vaq = 1.2 mL) was added. […] The UV-vis spectrum of the aqueous phase was recorded (Aaq^f), and the partition coefficient was calculated as Pow = ([…], where […] are the absorbances in the aqueous phase before and after partition with the organic phase, respectively.[118] For 1, an inverse procedure was followed, starting from a solution of the compound in water-saturated octanol. The partition coefficient was calculated as Pow = Aorg^f/(Aorg^0 - Aorg^f), where Aorg^0 and Aorg^f are the absorbances in the organic phase before and after partition with the aqueous phase, respectively. The wavelength of the maximum absorption of each compound (280-380 nm range) was used for UV-vis quantitation. The procedure was repeated three times for each sample (from the same stock solution); the results are given as mean ± standard deviation (Table 2).

HCT116 [4] = assay: SRB antiproliferative assay; assay type: cell-based, human; conditions: SRB test, 72 h; mean ± SD
Experimental: as §2

HCT116 cells = assay: Cellular uptake of Ru (ICP-MS); assay type: cell-based, human; conditions: HCT116, 15 μM, 24 h; mean ± SEM
Experimental: In these experiments, 1 × 10^6 HCT116 cells were seeded on 100 mm Petri dishes. After overnight preincubation in a drug-free medium, the cells were treated with the Ru complexes (15 μM) for 24 h. Afterward, the cells were extensively washed with PBS (37 °C), detached using 0.25% trypsin, washed twice with ice-cold PBS, and counted by an automatic cell counter. The cell pellets were digested using a microwave acid (HCl) digestion system (CEM Mars). The quantity of Ru taken up by the cells was determined by inductively coupled plasma mass spectrometry (ICP-MS). All experiments were carried out in triplicate.

[5] = Stability and speciation in deuterated cell culture medium (DMEM-d/DMSO-d6, NMR); assay type: physicochemical; conditions: for Aquo species % in DMEM-d/DMSO-d6 after 24h: 37 °C; for residual complex % in DMEM-d/DMSO-d6: after 24 h at 37 °C, sum of chloro and aquo complexes
Experimental: Powdered DMEM cell culture medium (1000 mg/L glucose and L-glutamine, without sodium bicarbonate and phenol red; D2902; Sigma-Aldrich) was dissolved in D2O (10 mg/mL), according to the manufacturer’s instructions. The solution of deuterated cell culture medium (“DMEM-d”) was treated with Me2SO2 (6.6 × 10^–3 M) and NaH2PO4/Na2HPO4 (0.10 M, pD = 7.5)[120]−[122] and then stored at 4 °C under N2. The selected ruthenium compound (2–3 mg) was dissolved in DMSO-d6 (0.14 mL; 0.18 mL for 4) and then diluted with DMEM-d up to 0.75 mL total volume (cRu ca. 4 × 10^–3 M). The mixture was stirred for 30 min, then filtered over celite, and transferred into an NMR tube. The resulting yellow solution was analyzed by ^1H and ^31P NMR (delay time = 3 s; number of scans = 20) and then heated at 37 °C for 24 h. After cooling to room temperature, NMR analyses were repeated. Compound 1 was instead dissolved in a DMSO-d6/DMEM-d 4:1 v/v solution (0.7 mL; [Ru] = approx. 3 × 10^–3 M) containing Me2SO2 as the internal standard.[115] The percentage of the starting complex + related aquo complex was calculated by the relative integral with respect to Me2SO2 (δ/ppm = 3.16 in DMSO-d6/DMEM-d 1:4 and 1:3 v/v; δ/ppm = 2.95 in DMSO-d6/DMEM-d 4:1 v/v).

MRC5pd30 = assay: MTT assay on noncancerous cells; assay type: cell-based, human; conditions: 72 h, mean ± SD
Experimental: as §1, §2

RD = assay: MTT antiproliferative assay; assay type: cell-based, human; conditions: 72 h, mean ± SD
Experimental: as §1, with “density. In vitro antiproliferative activity of Ru complexes was determined by the MTT or, alternatively, SRB assay as already described,[84] after 72 h of incubation of cells with various concentrations of the Ru complex. The reported IC50 values are an average of three independent experiments, each consisting of three replicates per concentration.” for “density.”

[6] = tested on: cancer cell lines (MCF-7, HeLa, 518A2, HCT116, RD) vs noncancerous MRC-5pd30; assay: MTT panel: average IC50 of cancer cell lines and selectivity index; assay type: cell-based, human; conditions: for SI (selectivity index): IC50 for noncancerous MRC-5pd30 vs the average IC50 value of cancer cell lines; for IC50: average of IC50 values related to cancer cell lines
Experimental: as §2

[7] = Stability and chloride/water exchange in D2O (NMR); assay type: physicochemical; conditions: for Aquo species % in D2O after 48h: 48 h at 37 °C; for residual complex % in D2O: after 48 h at 37 °C, sum of chloro and aquo complexes; for Aquo species % in D2O at t0: t0 = after 2 h stirring in D2O
Experimental: The same samples prepared at point (a) were used in this experiment, apart from complex 1 that was dissolved in DMSO-d6/D2O 4:1 v/v solution (0.7 mL; [Ru] = approx. […]) containing Me2SO2 as the standard.[115] After ^1H and ^31P{^1H} NMR analyses described above at point (a) (time = t0), samples were heated at 37 °C for 48 h. After cooling to room temperature, ^1H and ^31P NMR spectra were recorded. The percentage of starting complex + related aquo complex was calculated by the relative integral (C^βH signal in the ^1H spectrum) with respect to Me2SO2 (c = 3.3 × 10^–3 mol·L^–1; δ/ppm = 3.14 in D2O; δ/ppm = 2.95 in DMSO-d6/D2O 4:1 v/v), see Table 2 and S1.

[8] = Solubility in water (D2O) by 1H NMR; assay type: physicochemical; conditions: D2O, 21°C; sum of chloro and aquo complex after 2 h; 1H NMR, Me2SO2 standard
Experimental: A suspension of the selected ruthenium complex (3–5 mg) in a D2O solution (0.7 mL) containing Me2SO2 as the internal standard[115] (3.36 × 10^–3 M) was vigorously stirred at 21 °C for 2 h. The resulting saturated solution was filtered over celite, transferred into an NMR tube, and analyzed by ^1H NMR and ^31P NMR spectroscopy (delay time = 3 s; number of scans = 20). The concentration (solubility) was calculated by the relative integral (starting complex + aquo complex, C^βH signal in the ^1H spectrum) with respect to Me2SO2 (δ/ppm = 3.14). NMR data are given in the Supporting Information (Figures S36–S47).

Substance | IC50 (MCF-7) [µM] | IC50 (HeLa) [µM] | IC50 (HCT116 [2]) [µM] | log Pow [3] | IC50 (HCT116 [4]) [µM] | Accumulation of ruthenium, ng Ru/10^6 cells (HCT116 cells) [ng Ru/10^6 cells] | Aquo species % in DMEM-d/DMSO-d6 at t0 ([5]; DMSO-d6-DMEM-d 1:4 v/v) [%] | Aquo species % in DMEM-d/DMSO-d6 after 24h ([5]; DMSO-d6-DMEM-d 1:4 v/v) [%] | residual complex % in DMEM-d/DMSO-d6 ([5]; DMSO-d6/DMEM-d 1:4 v/v) [%] | Aquo species % in D2O after 48h [7] [%] | residual complex % in D2O [7] [%] | Aquo species % in D2O at t0 [7] [%] | solubility [8] | IC50 (518A2) [µM] | IC50 (MRC5pd30) [µM] | IC50 (RD) [µM] | SI (selectivity index) [6] | IC50 [6] [µM] | other results
[Fe2Cp2(CO)(μ-CO){μ-η^1:η^3-C(3-C6H4OH)CHCNMe2}]CF3SO3 [[FeFe]^+[CF3SO3]^–] |  |  |  |  |  |  |  |  |  |  |  |  |  |  |  |  |  |  | LogPow [1]: −0.34
[RuCl(κ^3-tpm)(PPh3){NCHNHC(CH)4C}]Cl [compound 4] | 37 ± 7 | 36 ± 1 | 25 ± 2 | 0.58 ± 0.06 | 21 ± 3 | 54.9 ± 1.3 |  |  |  | 70 | 100 | 67 | 2.4 10^–3 mol·L^–1 | 35 ± 4 | 56.6 ± 0.7 | 25 ± 3 | 1.8 | 31.6 ± 3.4 | Aquo species % in DMEM-d/DMSO-d6 at t0 ([5]; DMSO-d6-DMEM-d 1:3 v/v): 0%; Aquo species % in DMEM-d/DMSO-d6 after 24h ([5]; DMSO-d6-DMEM-d 1:3 v/v): 59%; residual complex % in DMEM-d/DMSO-d6 ([5]; DMSO-d6/DMEM-d 1:3 v/v): 93%
[RuCl(κ^3-tpm)(PPh3){NNH(CH)3}]Cl [compound 5] | 32 ± 5 | 54 ± 6 | 30 ± 2 | –0.05 ± 0.05 | 20 ± 3 | 58.4 ± 3.0 | 0 | 50 | 98 | 88 | 100 | 25 | 3.4 10^–3 mol·L^–1 | 31 ± 3 | 63 ± 4 | 23 ± 2 | 1.9 | 34 ± 3.6 | 

More lines, in order of falling IC50 (MCF-7), values ahead:

IC50 (MCF-7) [µM] | IC50 (HeLa) [µM] | IC50 (HCT116 [2]) [µM] | log Pow [3] | IC50 (HCT116 [4]) [µM] | Accumulation of ruthenium, ng Ru/10^6 cells (HCT116 cells) [ng Ru/10^6 cells] | Aquo species % in DMEM-d/DMSO-d6 at t0 ([5]; DMSO-d6-DMEM-d 1:4 v/v) [%] | Aquo species % in DMEM-d/DMSO-d6 after 24h ([5]; DMSO-d6-DMEM-d 1:4 v/v) [%] | residual complex % in DMEM-d/DMSO-d6 ([5]; DMSO-d6/DMEM-d 1:4 v/v) [%] | Aquo species % in D2O after 48h [7] [%] | residual complex % in D2O [7] [%] | Aquo species % in D2O at t0 [7] [%] | solubility [8] | Substance | IC50 (518A2) [µM] | IC50 (MRC5pd30) [µM] | IC50 (RD) [µM] | SI (selectivity index) [6] | IC50 [6] [µM] | other results
46 ± 7 | 54 ± 14 | 31 ± 2 |  | 20 ± 2 | 27.2 ± 1.1 | 9 | 70 | 100 | 99 | 100 | 15 | 1.9 10^–3 mol·L^–1 | [RuCl(κ^3-tpm)(PPh3){N(CH)3C(OH)CH}]Cl [compound 6] | 38 ± 8 | 82 ± 4 | 38 ± 6 | 2.0 | 41.4 ± 7.4 | 
32 ± 4 | 53 ± 4 | 25 ± 2 | –0.33 ± 0.07 | 16 ± 1 | 29.6 ± 2.9 | 0 | 59 | 51 | 92 | 89 | 80 | 4.5 10^–3 mol·L^–1 | [RuCl(κ^3-tpm)(PPh3)(NCMe)]Cl [compound 2] | 26 ± 4 | 76 ± 1 | 26 ± 5 | 2.4 | 32.4 ± 3.8 | 

— paper PMC9376960, “Ruthenium(II)–Tris-pyrazolylmethane Complexes Inhibit Cancer Cell Growth by Disrupting Mitochondrial Calcium Homeostasis” (Journal of Medicinal Chemistry, 2022)
